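Where inhibition never reached the appropriate level, the endpoint shown equals the highest concentration tested. Otherwise, values were interpolated linearly from a five-concentration, 48-hour dose response in 96-well plates. The concentration for 50% growth inhibition is given as GI50.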 Active and inactive are the calls of the source. No stated cut-off is given here; in the data, active = GI50 up to about 1.1 µM and inactive = higher.
Tests used:
Test in all cases: growth of human tumour cells (NCI), 48 h
SK-MEL-5 = test system: SK-MEL-5
UACC-62 = test system: UACC-62
OVCAR-5 = test system: OVCAR-5
HOP-62 = test system: HOP-62
T47D = test system: T47D
UACC-257 = test system: UACC-257
SK-OV-3 = test system: SK-OV-3
A549 = test system: A549
SR = test system: SR
DU-145 = test system: DU-145
ACHN = test system: ACHN
SK-MEL-2 = test system: SK-MEL-2
SN12C = test system: SN12C
CCRF-CEM = test system: CCRF-CEM
MCF7 = test system: MCF7
NCI-H522 = test system: NCI-H522
RXF 393 = test system: RXF 393
SF-539 = test system: SF-539
Malme-3M = test system: Malme-3M
U-251 = test system: U-251
MOLT-4 = test system: MOLT-4
M14 = test system: M14
OVCAR-4 = test system: OVCAR-4
RPMI-8226 = test system: RPMI-8226
UO-31 = test system: UO-31
SF-268 = test system: SF-268
OVCAR-8 = test system: OVCAR-8
HCT-116 = test system: HCT-116
EKVX = test system: EKVX
MDA-MB-231 = test system: MDA-MB-231
CAKI-1 = test system: CAKI-1
OVCAR-3 = test system: OVCAR-3
BT-549 = test system: BT-549
A498 = test system: A498
Hs-578T = test system: Hs-578T
COLO 205 = test system: COLO 205
SK-MEL-28 = test system: SK-MEL-28
NCI/ADR-RES = test system: NCI/ADR-RES
SNB-75 = test system: SNB-75
SW-620 = test system: SW-620
HT-29 = test system: HT-29
NCI-H23 = test system: NCI-H23
LOX IMVI = test system: LOX IMVI
HL-60 = test system: HL-60
SF-295 = test system: SF-295
MDA-N = test system: MDA-N
TK-10 = test system: TK-10
MDA-MB-435 = test system: MDA-MB-435
IGROV-1 = test system: IGROV-1
K562 = test system: K562
PC-3 = test system: PC-3
HCT-15 = test system: HCT-15
786-0 = test system: 786-0
KM12 = test system: KM12
SNB-19 = test system: SNB-19
NCI-H226 = test system: NCI-H226
HCC 2998 = test system: HCC 2998
NCI-H460 = test system: NCI-H460

## O=C(CCCN1CCC2(CC1)CC(=O)N(N1CCCCCC1)C2=O)c1ccc(F)cc1
SK-MEL-5
  GI50: 34.4 µM (inactive)
UACC-62
  GI50: > 100 µM (inactive)
OVCAR-5
  GI50: 41.7 µM (inactive)
HOP-62
  GI50: 35.1 µM (inactive)
T47D
  GI50: 77.1 µM (inactive)
UACC-257
  GI50: 26.7 µM (inactive)
SK-OV-3
  GI50: 91.6 µM (inactive)
A549
  GI50: > 100 µM (inactive)
SR
  GI50: 29.2 µM (inactive)
DU-145
  GI50: > 100 µM (inactive)
ACHN
  GI50: > 100 µM (inactive)
SK-MEL-2
  GI50: > 100 µM (inactive)
SN12C
  GI50: > 100 µM (inactive)
CCRF-CEM
  GI50: 5.7 µM (inactive)
MCF7
  GI50: 46.2 µM (inactive)
NCI-H522
  GI50: 52.7 µM (inactive)
RXF 393
  GI50: 23.6 µM (inactive)
SF-539
  GI50: > 100 µM (inactive)
Malme-3M
  GI50: 52.8 µM (inactive)
U-251
  GI50: > 100 µM (inactive)
MOLT-4
  GI50: 36.1 µM (inactive)
M14
  GI50: 33.6 µM (inactive)
OVCAR-4
  GI50: 40.6 µM (inactive)
RPMI-8226
  GI50: 58.5 µM (inactive)
UO-31
  GI50: 91.6 µM (inactive)
SF-268
  GI50: > 100 µM (inactive)
OVCAR-8
  GI50: 18.5 µM (inactive)
HCT-116
  GI50: 55 µM (inactive)
EKVX
  GI50: > 100 µM (inactive)
MDA-MB-231
  GI50: 82.6 µM (inactive)
CAKI-1
  GI50: 81.5 µM (inactive)
OVCAR-3
  GI50: > 100 µM (inactive)
BT-549
  GI50: 65.5 µM (inactive)
A498
  GI50: 62.7 µM (inactive)
Hs-578T
  GI50: 35.7 µM (inactive)
COLO 205
  GI50: > 100 µM (inactive)
SK-MEL-28
  GI50: > 100 µM (inactive)
NCI/ADR-RES
  GI50: 18.2 µM (inactive)
SNB-75
  GI50: 50.8 µM (inactive)
SW-620
  GI50: > 100 µM (inactive)
HT-29
  GI50: 16.4 µM (inactive)
NCI-H23
  GI50: 54.2 µM (inactive)
LOX IMVI
  GI50: 33.1 µM (inactive)
HL-60
  GI50: 14.1 µM (inactive)
SF-295
  GI50: 27.6 µM (inactive)
MDA-N
  GI50: > 100 µM (inactive)
TK-10
  GI50: > 100 µM (inactive)
MDA-MB-435
  GI50: > 100 µM (inactive)
IGROV-1
  GI50: > 100 µM (inactive)
K562
  GI50: 32.4 µM (inactive)
PC-3
  GI50: > 100 µM (inactive)
HCT-15
  GI50: > 100 µM
786-0
  GI50: 20.8 µM (inactive)

## CCCCCCCCOC1C(O)C(O)C(O)C(O)C12CO2 (stereo not drawn)
SK-MEL-5
  GI50: > 10 µM (inactive)
UACC-62
  GI50: 83.4 µM (inactive)
OVCAR-5
  GI50: > 10 µM (inactive)
HOP-62
  GI50: 44.6 µM (inactive)
T47D
  GI50: 63.2 µM (inactive)
UACC-257
  GI50: > 100 µM (inactive)
SK-OV-3
  GI50: 38.3 µM (inactive)
A549
  GI50: 49.5 µM (inactive)
SR
  GI50: 48.4 µM (inactive)
KM12
  GI50: 43.9 µM (inactive)
DU-145
  GI50: 76.6 µM (inactive)
ACHN
  GI50: 53.8 µM (inactive)
SK-MEL-2
  GI50: 53.8 µM (inactive)
SN12C
  GI50: 51.2 µM (inactive)
CCRF-CEM
  GI50: 28.3 µM (inactive)
MCF7
  GI50: 46.5 µM (inactive)
NCI-H522
  GI50: 26.7 µM (inactive)
RXF 393
  GI50: 29 µM (inactive)
SF-539
  GI50: > 100 µM (inactive)
Malme-3M
  GI50: 57.5 µM (inactive)
U-251
  GI50: 41.9 µM (inactive)
MOLT-4
  GI50: 38.9 µM (inactive)
SNB-19
  GI50: 91.4 µM (inactive)
RPMI-8226
  GI50: 50.2 µM (inactive)
UO-31
  GI50: 78 µM (inactive)
SF-268
  GI50: 64.4 µM (inactive)
OVCAR-8
  GI50: 62.7 µM (inactive)
HCT-116
  GI50: 41 µM (inactive)
NCI-H226
  GI50: 86.1 µM (inactive)
MDA-MB-231
  GI50: 39.8 µM (inactive)
CAKI-1
  GI50: 90.4 µM (inactive)
OVCAR-3
  GI50: 50.4 µM (inactive)
BT-549
  GI50: 37.6 µM (inactive)
A498
  GI50: > 100 µM (inactive)
Hs-578T
  GI50: 54.5 µM (inactive)
COLO 205
  GI50: > 100 µM (inactive)
SK-MEL-28
  GI50: > 100 µM (inactive)
NCI/ADR-RES
  GI50: 40.5 µM (inactive)
SNB-75
  GI50: 32 µM (inactive)
SW-620
  GI50: 45.4 µM (inactive)
HT-29
  GI50: 49.5 µM (inactive)
NCI-H23
  GI50: 16.1 µM (inactive)
HCC 2998
  GI50: 68.5 µM (inactive)
LOX IMVI
  GI50: 48.4 µM (inactive)
HL-60
  GI50: 42 µM (inactive)
NCI-H460
  GI50: 45.4 µM (inactive)
SF-295
  GI50: 43.8 µM (inactive)
MDA-N
  GI50: 32.4 µM (inactive)
TK-10
  GI50: > 100 µM (inactive)
MDA-MB-435
  GI50: 29.8 µM (inactive)
IGROV-1
  GI50: 75.5 µM (inactive)
K562
  GI50: 38.5 µM (inactive)
PC-3
  GI50: 55.3 µM (inactive)
HCT-15
  GI50: 50.4 µM
786-0
  GI50: 73.8 µM (inactive)

Reference: ChEMBL document CHEMBL1201862, “PubChem BioAssay data set” (2004)
